Reference: ChEMBL document CHEMBL3627645, “Synthesis and activities of new indolopyrrolobenzodiazepine derivatives toward acute myeloid leukemia cells” (Bioorg Med Chem, 2015)
Calls of active or inactive are those of the source. No cut-off for these calls is given here.

Tests used:
[1] = target: T1, Serine/threonine-protein kinase pim-3 (Homo sapiens, UniProt Q86V86); experiment: Inhibition of human Pim-3 using RSRHSSYPAGT as substrate assessed as residual activity at 1 uM measured for 30 mins in presence of [gamma-33P]-ATP relative to control
[2] = target: T1, Serine/threonine-protein kinase pim-3; experiment: Inhibition of human Pim-3 using RSRHSSYPAGT as substrate assessed as residual activity at 10 uM measured for 30 mins in presence of [gamma-33P]-ATP relative to control
IPC81 [3] = experiment: Induction of apoptosis in rat IPC81 cells assessed as chromatin condensation and fragmentation at 10 to 100 uM after 48 to 72 hrs by Hoechst 33342 staining-based visual and UV microscopic analysis; format: functional, cell-based
IPC81 [4] = experiment: Induction of apoptosis in rat IPC81 cells assessed as chromatin condensation and fragmentation at 100 uM after 72 hrs by Hoechst 33342 staining-based visual and UV microscopic analysis; format: functional, cell-based
NRK = experiment: Induction of apoptosis in NRK cells assessed as chromatin condensation and fragmentation at 10 to 100 uM after 48 hrs by Hoechst 33342 staining-based UV-vis microscopic analysis; format: cell-based; settings: rat
[5] = target: T2, Serine/threonine-protein kinase pim-1 (Homo sapiens, UniProt P11309); experiment: Inhibition of human Pim-1 using RSRHSSYPAGT as substrate assessed as residual activity at 1 uM measured for 30 mins in presence of [gamma-33P]-ATP relative to control
Target sequence in this assay (P11309 whole entry, looked up): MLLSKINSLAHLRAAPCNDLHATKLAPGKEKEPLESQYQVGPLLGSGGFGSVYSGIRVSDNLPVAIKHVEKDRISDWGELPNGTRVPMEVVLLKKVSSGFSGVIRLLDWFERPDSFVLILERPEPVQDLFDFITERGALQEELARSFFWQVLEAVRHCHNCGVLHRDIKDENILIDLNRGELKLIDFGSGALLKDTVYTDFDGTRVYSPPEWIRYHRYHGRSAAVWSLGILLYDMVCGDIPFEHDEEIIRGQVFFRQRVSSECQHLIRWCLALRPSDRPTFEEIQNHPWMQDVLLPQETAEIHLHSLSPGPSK

[6] = target: T2, Serine/threonine-protein kinase pim-1; experiment: Inhibition of human Pim-1 using RSRHSSYPAGT as substrate assessed as residual activity at 10 uM measured for 30 mins in presence of [gamma-33P]-ATP relative to control
Target sequence in this assay (P11309 whole entry, looked up): as above

IPC81 [7] = experiment: Induction of apoptosis in rat IPC81 cells overexpressing Bcl-2 assessed as chromatin condensation and fragmentation at 10 to 100 uM after 48 hrs by Hoechst 33342 staining-based visual and UV microscopic analysis; format: functional, cell-based
[8] = target: T2, Serine/threonine-protein kinase pim-1; experiment: Inhibition of Pim-1 (unknown origin)
Target sequence in this assay (P11309 whole entry): as the sequence (P11309 whole entry, looked up) above

[9] = target: T1, Serine/threonine-protein kinase pim-3; experiment: Inhibition of Pim-3 (unknown origin)
[10] = target: T2, Serine/threonine-protein kinase pim-1; experiment: Inhibition of human Pim-1 using RSRHSSYPAGT as substrate measured for 30 mins in presence of [gamma-33P]-ATP
Target sequence in this assay (P11309 whole entry): as the sequence (P11309 whole entry, looked up) above

[11] = target: T1, Serine/threonine-protein kinase pim-3; experiment: Inhibition of human Pim-3 using RSRHSSYPAGT as substrate measured for 30 mins in presence of [gamma-33P]-ATP

Row | SMILES | Activity [1] | Activity [2] | Activity (IPC81 [3]) | Activity (IPC81 [4]) | Activity (NRK) | Activity [5] | Activity [6] | Activity (IPC81 [7]) | IC50 [8] | IC50 [9] | IC50 [10] | IC50 [11]
1 | O=Cc1cn2c3c1ccc1c4ccccc4n(c13)CC(OCCCN1CCCCC1)C2 (centres undefined) | 45% | 20% | Active | Active | Non-toxic | 66% | 31% | Active |  |  |  | 
2 | Cc1ccc(S(=O)(=O)NC2Cn3cc(C=O)c4ccc5c6ccccc6n(c5c43)C2)cc1 (centres undefined) | 55% | 34% |  |  |  | 52% | 32% |  |  |  |  | 
3 | O=Cc1cn2c3c1ccc1c4ccccc4n(c13)CC(OCCN1CCOCC1)C2 (centres undefined) | 65.8% | 35% |  |  |  | 57% | 34% |  |  |  |  | 
4 | O=Cc1cn2c3c1ccc1c4ccccc4n(c13)CC(OCCN1CCCC1)C2 (centres undefined) | 48% | 16.4% |  |  |  | 84% | 17.8% |  |  |  |  | 
5 | O=Cc1cn2c3c1ccc1c4ccccc4n(c13)CCCCC2 |  |  |  |  |  |  |  |  | 9 nM | 26 nM |  | 
6 | O=Cc1cn2c3c1ccc1c4ccccc4n(c13)CC(O)C2 (centres undefined) | 13.3% | 3.5% |  |  |  | 38% | 5% |  |  |  | 1400 nM | 380 nM
7 | O=Cc1cn2c3c1ccc1c4ccccc4n(c13)CC(OCCCN1CCCC1)C2 (centres undefined) | 54% | 18.3% |  |  |  | 58% | 24.1% |  |  |  |  | 
8 | CS(=O)(=O)OC1Cn2cc(C=O)c3ccc4c5ccccc5n(c4c32)C1 (centres undefined) | 25% | 8.1% |  |  |  | 24% | 6.6% |  |  |  | 1560 nM | 600 nM
9 | CN1CCN(CCOC2Cn3cc(C=O)c4ccc5c6ccccc6n(c5c43)C2)CC1 (centres undefined) | 60% | 28% |  |  |  | 94% | 35% |  |  |  |  | 
10 | CN1CCN(CCCOC2Cn3cc(C=O)c4ccc5c6ccccc6n(c5c43)C2)CC1 (centres undefined) | 51% | 26% |  |  |  | 58.2% | 22.4% |  |  |  |  | 
11 | O=Cc1cn2c3c1ccc1c4ccccc4n(c13)CC(OCCCN1CCOCC1)C2 (centres undefined) | 70% | 24% |  |  |  | 75% | 28% |  |  |  |  | 
12 | O=Cc1cn2c3c1ccc1c4ccccc4n(c13)CCC2 |  |  |  |  |  |  |  |  | 42 nM | 50 nM |  | 
13 | N#CCOC1Cn2cc(C=O)c3ccc4c5ccccc5n(c4c32)C1 (centres undefined) | 10.3% | 5% | inactive |  | Toxic | 9.5% | 1.9% | inactive |  |  | 390 nM | 190 nM
14 | O=Cc1cn2c3c1ccc1c4ccccc4n(c13)CC(OCCN1CCCCC1)C2 (centres undefined) | 54% | 22.2% |  |  |  | 82% | 30% |  |  |  |  | 
15 | Cc1ccc(S(=O)(=O)OCCOC2Cn3cc(C=O)c4ccc5c6ccccc6n(c5c43)C2)cc1 (centres undefined) | 65% | 80% |  |  |  | 78% | 102% |  |  |  |  | 
16 | Cc1ccc(S(=O)(=O)OCCCOC2Cn3cc(C=O)c4ccc5c6ccccc6n(c5c43)C2)cc1 (centres undefined) | 70.8% | 79% |  |  |  | 81% | 94% |  |  |  |  | 
17 | CCN(CC)CCOC1Cn2cc(C=O)c3ccc4c5ccccc5n(c4c32)C1 (centres undefined) | 59% | 28% |  |  |  | 78% | 35% |  |  |  |  | 
18 | O=Cc1cn2c3c1ccc1c4ccccc4n(c13)CC(OCCCBr)C2 (centres undefined) | 40% | 11% | inactive |  | Non-toxic | 54% | 19% | inactive |  |  | 740 nM | 340 nM
19 | CCN(CC)CCCOC1Cn2cc(C=O)c3ccc4c5ccccc5n(c4c32)C1 (centres undefined) | 60.8% | 24% |  |  |  | 71.6% | 29% |  |  |  |  | 
20 | O=Cc1cn2c3c1ccc1c4ccccc4n(c13)CC(OCCCO)C2 (centres undefined) | 49.6% | 16% |  |  |  | 54.9% | 21% |  |  |  |  | 
21 | O=Cc1cn2c3c1ccc1c4ccccc4n(c13)CC(OCCO)C2 (centres undefined) | 30% | 10.8% | Active | Active | Toxic | 44% | 9% | inactive |  |  | 1100 nM | 700 nM
